ChEMBL document CHEMBL5236624, “Synthesis, Characterization, and Application of Muscarinergic M3 Receptor Ligands Linked to Fluorescent Dyes” (J Med Chem, 2022)

Tests used:
[1] = molecular target: Muscarinic acetylcholine receptor M3 (Homo sapiens, UniProt P20309); assay: Displacement of [3H]N-methylscopolamine from human muscarinic M3 receptor expressed in human HEK293T cell membranes by radioligand competition binding based analysis; parameters: species or system Cell membrane
[2] = molecular target: T1, Muscarinic acetylcholine receptor M2 (Homo sapiens, UniProt P08172); assay: Displacement of [3H]N-methylscopolamine from human muscarinic M2 receptor expressed in human HEK293T cell membranes by radioligand competition binding based analysis; parameters: species or system Cell membrane
T1 sequence (P08172 whole entry): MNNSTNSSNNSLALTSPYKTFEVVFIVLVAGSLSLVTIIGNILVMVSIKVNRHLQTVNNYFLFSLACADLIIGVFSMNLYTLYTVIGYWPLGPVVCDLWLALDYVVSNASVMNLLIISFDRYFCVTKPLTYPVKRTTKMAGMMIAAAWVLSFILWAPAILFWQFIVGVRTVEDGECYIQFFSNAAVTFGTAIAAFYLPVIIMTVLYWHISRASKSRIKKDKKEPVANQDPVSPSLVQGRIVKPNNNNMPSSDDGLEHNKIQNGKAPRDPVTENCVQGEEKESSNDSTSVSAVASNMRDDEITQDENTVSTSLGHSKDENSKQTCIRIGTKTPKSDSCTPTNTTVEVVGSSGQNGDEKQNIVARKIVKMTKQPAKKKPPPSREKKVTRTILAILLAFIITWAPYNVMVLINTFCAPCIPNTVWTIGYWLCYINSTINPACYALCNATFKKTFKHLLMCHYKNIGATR

[3] = molecular target: T2, Muscarinic acetylcholine receptor M1 (Homo sapiens, UniProt P11229); assay: Displacement of [3H]N-methylscopolamine from human muscarinic M1 receptor expressed in human HEK293T cell membranes by radioligand competition binding based analysis; parameters: species or system Cell membrane
T2 sequence (P11229 whole entry): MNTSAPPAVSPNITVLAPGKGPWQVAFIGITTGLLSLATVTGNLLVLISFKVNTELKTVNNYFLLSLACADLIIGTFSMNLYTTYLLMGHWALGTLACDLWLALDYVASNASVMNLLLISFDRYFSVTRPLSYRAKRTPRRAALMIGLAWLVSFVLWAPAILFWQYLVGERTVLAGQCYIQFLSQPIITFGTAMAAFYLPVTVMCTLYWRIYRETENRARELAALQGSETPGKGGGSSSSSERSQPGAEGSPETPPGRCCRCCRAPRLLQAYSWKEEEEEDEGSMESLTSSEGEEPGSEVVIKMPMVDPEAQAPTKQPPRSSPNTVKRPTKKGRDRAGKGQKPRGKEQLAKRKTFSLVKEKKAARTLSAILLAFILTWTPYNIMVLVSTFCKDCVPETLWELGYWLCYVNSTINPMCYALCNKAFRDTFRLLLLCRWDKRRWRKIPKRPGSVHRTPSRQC

Homo sapiens [4] = species: Homo sapiens; assay: Selectivity ratio, Ki for displacement of [3H]N-methylscopolamine from human muscarinic M4 receptor expressed in human HEK293T cell membranes to Ki for displacement of [3H]N-methylscopolamine from human muscarinic M3 receptor expressed in human HEK293T cell membranes
Homo sapiens [5] = species: Homo sapiens; assay: Selectivity ratio, Ki for displacement of [3H]N-methylscopolamine from human muscarinic M5 receptor expressed in human HEK293T cell membranes to Ki for displacement of [3H]N-methylscopolamine from human muscarinic M3 receptor expressed in human HEK293T cell membranes
[6] = molecular target: T3, Muscarinic acetylcholine receptor M5 (Homo sapiens, UniProt P08912); assay: Displacement of [3H]N-methylscopolamine from human muscarinic M5 receptor expressed in human HEK293T cell membranes by radioligand competition binding based analysis; parameters: species or system Cell membrane
T3 sequence (P08912 whole entry): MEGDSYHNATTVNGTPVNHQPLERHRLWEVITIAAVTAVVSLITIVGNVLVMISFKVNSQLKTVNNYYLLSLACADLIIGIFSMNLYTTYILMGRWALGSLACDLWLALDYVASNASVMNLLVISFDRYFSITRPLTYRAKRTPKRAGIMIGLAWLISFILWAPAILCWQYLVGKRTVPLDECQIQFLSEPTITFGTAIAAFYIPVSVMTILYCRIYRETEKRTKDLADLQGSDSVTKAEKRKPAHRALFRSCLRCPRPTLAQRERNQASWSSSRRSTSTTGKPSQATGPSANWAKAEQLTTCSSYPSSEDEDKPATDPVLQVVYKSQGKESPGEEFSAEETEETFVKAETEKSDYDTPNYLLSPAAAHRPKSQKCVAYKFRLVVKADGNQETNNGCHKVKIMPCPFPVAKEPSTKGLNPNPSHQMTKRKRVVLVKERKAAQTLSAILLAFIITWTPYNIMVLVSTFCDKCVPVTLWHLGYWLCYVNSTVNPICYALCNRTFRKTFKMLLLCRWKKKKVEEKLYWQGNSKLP

[7] = molecular target: T4, Muscarinic acetylcholine receptor M4 (Homo sapiens, UniProt P08173); assay: Displacement of [3H]N-methylscopolamine from human muscarinic M4 receptor expressed in human HEK293T cell membranes by radioligand competition binding based analysis; parameters: species or system Cell membrane
T4 sequence (P08173 whole entry): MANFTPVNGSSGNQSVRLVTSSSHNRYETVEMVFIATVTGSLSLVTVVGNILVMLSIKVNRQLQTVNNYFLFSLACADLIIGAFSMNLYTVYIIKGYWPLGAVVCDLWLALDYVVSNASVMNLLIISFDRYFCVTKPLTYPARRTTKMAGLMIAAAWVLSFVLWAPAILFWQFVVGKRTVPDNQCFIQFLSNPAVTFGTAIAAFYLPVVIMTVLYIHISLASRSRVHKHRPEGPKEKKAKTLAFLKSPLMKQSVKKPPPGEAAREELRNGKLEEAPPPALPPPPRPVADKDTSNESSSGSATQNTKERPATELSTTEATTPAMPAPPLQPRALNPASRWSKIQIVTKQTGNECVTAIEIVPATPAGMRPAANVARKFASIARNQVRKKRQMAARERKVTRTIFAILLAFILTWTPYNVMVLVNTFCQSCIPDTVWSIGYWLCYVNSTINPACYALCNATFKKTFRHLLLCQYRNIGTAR

Muscarinic acetylcholine receptor M3, sequence (P20309 whole entry): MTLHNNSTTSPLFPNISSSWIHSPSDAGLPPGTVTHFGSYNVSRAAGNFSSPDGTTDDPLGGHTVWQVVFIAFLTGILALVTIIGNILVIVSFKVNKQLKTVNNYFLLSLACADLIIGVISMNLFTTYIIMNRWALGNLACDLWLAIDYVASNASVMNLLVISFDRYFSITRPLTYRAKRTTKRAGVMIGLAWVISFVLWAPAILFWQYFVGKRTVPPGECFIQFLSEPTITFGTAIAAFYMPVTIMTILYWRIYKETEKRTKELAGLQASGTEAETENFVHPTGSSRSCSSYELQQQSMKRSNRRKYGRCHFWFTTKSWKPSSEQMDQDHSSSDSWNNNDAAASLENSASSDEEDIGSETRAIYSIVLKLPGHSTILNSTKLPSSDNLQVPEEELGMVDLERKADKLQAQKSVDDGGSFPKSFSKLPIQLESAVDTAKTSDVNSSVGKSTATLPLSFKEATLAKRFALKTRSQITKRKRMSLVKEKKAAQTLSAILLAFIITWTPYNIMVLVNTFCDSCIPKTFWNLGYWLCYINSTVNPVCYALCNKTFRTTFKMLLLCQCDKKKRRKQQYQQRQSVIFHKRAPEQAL

Structure (SMILES) | Ki [1] | Ki [2] | Ki [3] | Selectivity ratio (Homo sapiens [4]) | Selectivity ratio (Homo sapiens [5]) | Ki [6] | Ki [7]
C#CCCCCCN1CCC(OC(=O)Nc2ccc(F)cc2-c2ccc(F)c(Cl)c2)CC1 | 1.8 nM | 23 nM | 2 nM | – | – | – | –
CN(C)c1ccc2c(-c3ccc(-c4cn(CCCCCn5cc(CCCCCN6CCC(OC(=O)Nc7ccc(F)cc7-c7ccc(F)c(Cl)c7)CC6)nn5)nn4)cc3C(=O)[O-])c3ccc(=[N+](C)C)cc-3oc2c1 | 6.8 nM | 26 nM | 4.1 nM | 0.49 | 1.4 | 9.7 nM | 3.3 nM
NCCCCCCCCN1CCC(OC(=O)Nc2ccc(F)cc2-c2ccc(F)c(Cl)c2)CC1 | 0.28 nM | 1.7 nM | 0.34 nM | – | – | – | –
O=C(Nc1ccc(F)cc1-c1ccc(F)c(Cl)c1)OC1CCNCC1 | 4.3 nM | 92 nM | 2.8 nM | – | – | – | –
CN(C)c1ccc2c(-c3ccc(-c4cn(CCCCCn5cc(CCCCCN6CCC(COC(=O)Nc7ccc(F)cc7-c7ccc(F)c(Cl)c7)CC6)nn5)nn4)cc3C(=O)[O-])c3ccc(=[N+](C)C)cc-3oc2c1 | 3.1 nM | 26 nM | 3.8 nM | 0.84 | 3.9 | 12 nM | 2.6 nM
NCCCCCCN1CCC(COC(=O)Nc2ccc(F)cc2-c2ccc(F)c(Cl)c2)CC1 | 0.081 nM | 1.4 nM | 0.43 nM | – | – | – | –
C#CCCCCCN1CCC(COC(=O)Nc2ccc(F)cc2-c2ccc(F)c(Cl)c2)CC1 | 0.77 nM | 13 nM | 1.3 nM | – | – | – | –
CN(C)c1ccc2c(-c3ccc(-c4cn(CCCCCn5cc(CCCCCCN6CCC(OC(=O)Nc7ccc(F)cc7-c7ccc(F)c(Cl)c7)CC6)nn5)nn4)cc3C(=O)[O-])c3ccc(=[N+](C)C)cc-3oc2c1 | 12 nM | 9.8 nM | 2 nM | 0.32 | 0.92 | 11 nM | 3.8 nM
CN1/C(=C/C=C/C=C/C2=[N+](CCCCCC(=O)NCCCCCCCCN3CCC(COC(=O)Nc4ccc(F)cc4-c4ccc(F)c(Cl)c4)CC3)c3ccccc3C2(C)C)C(C)(C)c2ccccc21 | 3.2 nM | 1.1 nM | 1.8 nM | 0.18 | 0.81 | 2.6 nM | 0.56 nM
CN1/C(=C/C=C/C=C/C2=[N+](CCCCCC(=O)NCCCNCCCCCCN3CCC(COC(=O)Nc4ccc(F)cc4-c4ccc(F)c(Cl)c4)CC3)c3ccccc3C2(C)C)C(C)(C)c2ccccc21 | 7.7 nM | 9.9 nM | 1.9 nM | 0.22 | 2.3 | 18 nM | 1.7 nM
NCCCCCCCCN1CCC(COC(=O)Nc2ccc(F)cc2-c2ccc(F)c(Cl)c2)CC1 | 0.15 nM | 0.92 nM | 0.35 nM | – | – | – | –
CN1/C(=C/C=C/C=C/C2=[N+](CCCCCC(=O)NCCCCCCN3CCC(COC(=O)Nc4ccc(F)cc4-c4ccc(F)c(Cl)c4)CC3)c3ccccc3C2(C)C)C(C)(C)c2ccccc21 | 6.3 nM | 6.7 nM | 2.3 nM | 0.14 | 1.1 | 6.9 nM | 0.9 nM
NCCCCCCN1CCC(OC(=O)Nc2ccc(F)cc2-c2ccc(F)c(Cl)c2)CC1 | 2.6 nM | 28 nM | 1.9 nM | – | – | – | –
C#CCCCCCCN1CCC(COC(=O)Nc2ccc(F)cc2-c2ccc(F)c(Cl)c2)CC1 | 0.32 nM | 9.3 nM | 0.64 nM | – | – | – | –
CN1/C(=C/C=C/C=C/C2=[N+](CCCCCC(=O)NCCCCCCCCN3CCC(OC(=O)Nc4ccc(F)cc4-c4ccc(F)c(Cl)c4)CC3)c3ccccc3C2(C)C)C(C)(C)c2ccccc21 | – | 0.62 nM | 1 nM | 1.4 | – | – | 0.86 nM
C#CCCCCCCN1CCC(OC(=O)Nc2ccc(F)cc2-c2ccc(F)c(Cl)c2)CC1 | 1 nM | 7.9 nM | 0.63 nM | – | – | – | –
